According to PubChem BioAssay (NCI):
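Five concentrations, 48 hours, 96-well plates. Definition used: TGI = concentration required for complete inhibition of growth.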

Assays:
Assay in all cases: growth of human tumour cells (NCI), 48 h
A498 renal = system: A498 renal
PC-3 prostate = system: PC-3 prostate
TK-10 renal = system: TK-10 renal
SW-620 colon = system: SW-620 colon
786-0 renal = system: 786-0 renal
KM12 colon = system: KM12 colon
MDA-N = system: MDA-N
EKVX NSCLC = system: EKVX NSCLC
K-562 leukemia = system: K-562 leukemia
SNB-75 CNS = system: SNB-75 CNS
HS 578T breast = system: HS 578T breast
LOX IMVI melanoma = system: LOX IMVI melanoma
DU-145 prostate = system: DU-145 prostate
NCI-H226 lung = system: NCI-H226 lung
IGROV1 ovarian = system: IGROV1 ovarian
HOP-92 NSCLC = system: HOP-92 NSCLC
SF-539 CNS = system: SF-539 CNS
NCI-H23 lung = system: NCI-H23 lung
MCF7 breast = system: MCF7 breast

Row | Compound | TGI (A498 renal) | TGI (PC-3 prostate) | TGI (TK-10 renal) | TGI (SW-620 colon) | TGI (786-0 renal) | TGI (KM12 colon) | TGI (MDA-N) | TGI (EKVX NSCLC) | TGI (K-562 leukemia) | TGI (SNB-75 CNS) | TGI (HS 578T breast) | TGI (LOX IMVI melanoma) | TGI (DU-145 prostate) | TGI (NCI-H226 lung) | TGI (IGROV1 ovarian) | TGI (HOP-92 NSCLC) | TGI (SF-539 CNS) | TGI (NCI-H23 lung) | TGI (MCF7 breast)
1 | CC(=O)N1c2ccccc2[C@H]2CCc3c([nH]c4ccccc34)[C@H]21 | 36.2 µM | > 100 µM | > 100 µM | 37.3 µM | 32.2 µM | 39.5 µM | 49.3 µM | 49 µM | 30.9 µM | 63 µM | 57.7 µM | 31.8 µM | 61.9 µM | 36.7 µM | 44.3 µM | 33.5 µM | 26.1 µM | 31.2 µM | –
2 | CC1=C2CC(C)(C)CC(=O)C2(C)CCC1=O (stereo not given) | – | > 100 µM | > 100 µM | > 100 µM | > 100 µM | > 100 µM | > 100 µM | > 100 µM | > 100 µM | > 100 µM | > 100 µM | > 100 µM | > 100 µM | > 100 µM | > 100 µM | – | > 100 µM | > 100 µM | > 100 µM
3 | CSC1(Cc2ccccn2)C(=O)Nc2cccc([N+](=O)[O-])c21 (stereo not given) | – | > 100 µM | > 100 µM | > 100 µM | > 100 µM | > 100 µM | > 100 µM | > 100 µM | – | > 100 µM | > 100 µM | > 100 µM | > 100 µM | > 100 µM | > 100 µM | > 100 µM | > 100 µM | > 100 µM | > 100 µM
4 | FC(F)(F)c1cnc(N/N=C(/c2ccccc2)c2ccccn2)c(Cl)c1 | – | 24.6 µM | – | > 100 µM | 17.9 µM | 26.3 µM | > 100 µM | 17.5 µM | > 100 µM | 16 µM | 26.9 µM | – | 51.3 µM | 50.4 µM | 11.5 µM | 23.2 µM | 14.4 µM | 25.1 µM | 6.7 µM
5 | CCCCOCCOCCOC1=C(Cl)C(=O)c2c(O)ccc(O)c2C1=O | 4.95 µM | 3.19 µM | 2.63 µM | 1.75 µM | 3.4 µM | 3.6 µM | 2.03 µM | 6.96 µM | – | 1.25 µM | 5.86 µM | 1.75 µM | 3.16 µM | 3.21 µM | 2.78 µM | 0.437 µM | 2.84 µM | 2.92 µM | –
6 | Nc1ncnc2c1N=C(c1ccccc1)CC(c1ccccc1)N2 (stereo not given) | – | > 100 µM | > 100 µM | > 100 µM | > 100 µM | > 100 µM | > 100 µM | > 100 µM | > 100 µM | > 100 µM | > 100 µM | > 100 µM | > 100 µM | > 100 µM | – | > 100 µM | > 100 µM | > 100 µM | > 100 µM
7 | Cc1cc(OC(=O)Nc2ccc(Cl)cc2)ccc1C(=S)Nc1ccccc1 | > 100 µM | > 100 µM | – | > 100 µM | > 100 µM | > 100 µM | > 100 µM | > 100 µM | > 100 µM | > 100 µM | > 100 µM | > 100 µM | – | – | > 100 µM | > 100 µM | > 100 µM | – | > 100 µM
8 | Cn1c(=O)n2n(c1=O)C(S(=O)c1ccccc1)C2 (stereo not given) | – | > 100 µM | > 100 µM | > 100 µM | > 100 µM | > 100 µM | > 100 µM | > 100 µM | > 100 µM | > 100 µM | > 100 µM | > 100 µM | > 100 µM | – | > 100 µM | > 100 µM | > 100 µM | > 100 µM | > 100 µM
9 | O=C(Nc1ccc(Cl)c(C(F)(F)F)c1)C(=O)c1c(O)c2ccccc2oc1=O | > 100 µM | > 100 µM | > 100 µM | > 100 µM | > 100 µM | > 100 µM | > 100 µM | > 100 µM | > 100 µM | > 100 µM | > 100 µM | > 100 µM | – | > 100 µM | > 100 µM | > 100 µM | > 100 µM | > 100 µM | > 100 µM
10 | O=C1Nc2ccccc2C1S(=O)(=O)c1ccccc1 (stereo not given) | > 100 µM | > 100 µM | > 100 µM | > 100 µM | > 100 µM | > 100 µM | > 100 µM | > 100 µM | > 100 µM | > 100 µM | > 100 µM | > 100 µM | > 100 µM | > 100 µM | > 100 µM | > 100 µM | – | > 100 µM | –
11 | O=C(O)c1ccccc1CC(Cc1ccccc1)C(=O)O (stereo not given) | > 100 µM | > 100 µM | > 100 µM | > 100 µM | > 100 µM | > 100 µM | > 100 µM | > 100 µM | > 100 µM | > 100 µM | > 100 µM | > 100 µM | > 100 µM | > 100 µM | > 100 µM | > 100 µM | > 100 µM | > 100 µM | –
12 | NC(N)=N/N=C\c1c(-c2ccccc2)nc2sccn12 | 33.6 µM | 28.5 µM | 31.2 µM | 28.1 µM | 27.1 µM | 27.5 µM | 27.1 µM | 28.1 µM | > 100 µM | 24.8 µM | 34.5 µM | 30.1 µM | 33 µM | 33.1 µM | 27 µM | 27.4 µM | 30.2 µM | 25.4 µM | –
